Series [1] has as its system MDA-MB-231. Kind of series: Cytotoxicity against human MDA-MB-231 cells incubated for 12 hrs by MTT assay. The series is classed as functional, cell-based. The conditions noted are these: MDA-MB-231, 12 h.
In series [2] the test system is MDA-MB-231. Kind of series: Cytotoxicity against human MDA-MB-231 cells incubated for 48 hrs by MTT assay. The format is functional, cell-based. The conditions noted are these: MDA-MB-231, 48 h.
Series [3] deals with MDA-MB-231. The series is described as follows: Cytotoxicity against human MDA-MB-231 cells incubated for 24 hrs by MTT assay. The series is classed as functional, cell-based. The conditions noted are these: MDA-MB-231, 24 h.
For series [4], the system named is MDA-MB-231. Kind of series: Cytotoxicity against human MDA-MB-231 cells assessed as inhibition of cell viability incubated for 48 hrs by MTT assay. The conditions noted are these: MDA-MB-231, 48 h. The series is classed as functional, cell-based.
Series [5] relates to MCF-10A. Kind of series: Cytotoxicity against human MCF-10A cells assessed as inhibition of cell viability at 150 uM incubated for 48 hrs by MTT assay. The format is toxicity, cell-based.
Series [6] in a line: Selectivity index, ratio of inhibition of DNA synthesis in human MCF-10A cells to inhibition of DNA synthesis in human MDA-MB-231 cells. The format is toxicity, cell-based. The conditions noted are these: MCF-10A cells and MDA-MB-231 cells.
The nature of series [7]: Lipophilicity, logP of compound. The format is physicochemical. The conditions noted are these: octanol/water; read-out: logP.
The nature of series [8]: Lipophilicity, logD of compound at pH 7.4. The format is physicochemical. The conditions noted are these: buffer, read-out: logD.
Series [9] can be described thus: Solubility of compound in double distilled H2O. The series is classed as physicochemical. The conditions noted are these: double distilled water.
A short description of series [10]: Solubility of compound in PBS buffer at pH 7.4. The series is classed as physicochemical.
For series [11], the system named is MDA-MB-231. The series is described as follows: Induction of apoptosis in human MDA-MB-231 cells assessed as viable cells incubated for 24 hrs by Annexin V-FITC/PI staining based flow cytometry (reference value: 99.5 %). The series is classed as functional.
Series [12] concerns MDA-MB-231. Kind of series: Induction of apoptosis in human MDA-MB-231 cells assessed as early apoptotic cells incubated for 24 hrs by Annexin V-FITC/PI staining based flow cytometry (reference value: 0.22 %). The format is functional.
Series [13] relates to MDA-MB-231. Kind of series: Induction of apoptosis in human MDA-MB-231 cells assessed as late apoptotic cells incubated for 24 hrs by Annexin V-FITC/PI staining based flow cytometry (reference value: 0.17 %). The series is classed as functional.
Series [14] relates to MDA-MB-231. The series is described as follows: Induction of apoptosis in human MDA-MB-231 cells assessed as necrotic cells incubated for 24 hrs by Annexin V-FITC/PI staining based flow cytometry (reference value: 0.065 %). The series is classed as functional.
Series [15] in a line: Induction of apoptosis in human MCF-10A cells assessed as viable cells incubated for 24 hrs by Annexin V-FITC/PI staining based flow cytometry (reference value: 96.0 %). The series is classed as toxicity, cell-based. The conditions noted are these: read-out: Activity.
Series [16] concerns MCF-10A. Kind of series: Induction of apoptosis in human MCF-10A cells assessed as early apoptotic cells incubated for 24 hrs by Annexin V-FITC/PI staining based flow cytometry (reference value: 1.66 %). The format is toxicity, cell-based.
Series [17] deals with MCF-10A. Kind of series: Induction of apoptosis in human MCF-10A cells assessed as late apoptotic cells incubated for 24 hrs by Annexin V-FITC/PI staining based flow cytometry (reference value: 2.16 %). The series is classed as toxicity, cell-based.
Series [18] deals with MCF-10A. Kind of series: Induction of apoptosis in human MCF-10A cells assessed as necrotic cells incubated for 24 hrs by Annexin V-FITC/PI staining based flow cytometry (reference value: 0.17 %). The format is toxicity, cell-based.
Series [19] concerns MDA-MB-231. Kind of series: Induction of apoptosis in human MDA-MB-231 cells assessed as increase in caspase-3 activity incubated for 24 hrs. The series is classed as functional, cell-based.
The subject of series [20] is MCF-10A. The series is described as follows: Induction of apoptosis in human MCF-10A cells assessed as increase in caspase-3 activity incubated for 24 hrs. The series is classed as toxicity, cell-based.
In series [21] the test system is MDA-MB-231. The series is described as follows: Induction of apoptosis in human MDA-MB-231 cells incubated for 24 hrs by TUNEL assay. The series is classed as functional, cell-based.
Series [22] concerns MDA-MB-231. The series is described as follows: Inhibition of mitochondrial membrane potential in human MDA-MB-231 cells assessed as decrease in ATP level incubated for 24 hrs by luminescence based analysis. The format is functional, cell-based.
Series [23] deals with MDA-MB-231. Kind of series: Inhibition of mitochondrial membrane potential in human MDA-MB-231 cells assessed as increase in intracellular calcium ion level incubated for 24 hrs by Fluo-4 AM dye based analysis. The format is functional, cell-based.
For series [24], the system named is MDA-MB-231. The series is described as follows: Inhibition of mitochondrial membrane potential in human MDA-MB-231 cells incubated for 24 hrs by JC-1 dye based analysis. The series is classed as functional, cell-based.
Series [25] relates to MCF-10A. Kind of series: Inhibition of mitochondrial membrane potential in human MCF-10A cells incubated for 24 hrs by JC-1 dye based analysis. The format is toxicity, cell-based.
The test system of series [26] is MDA-MB-231. The series is described as follows: Induction of DNA damage in human MDA-MB-231 cells assessed as increase in gamma-H2AX level incubated for 24 hrs by immunofluorescence based analysis. The series is classed as functional, cell-based.
In series [27] the test system is MDA-MB-231. Kind of series: Antitumor activity against human MDA-MB-231 cells assessed as sphere-forming efficiency incubated for 6 hrs followed by medium replacement without compound measured after 6 days by microscopic analysis (reference value: 1.07 %). The format is functional.
For series [28], the system named is MDA-MB-231. The series is described as follows: Antitumor activity against human MDA-MB-231 cells assessed as reduction in sphere volume incubated for 6 hrs followed by medium replacement without compound measured after 6 days by microscopic analysis. The format is functional, cell-based.
Series [29] relates to MDA-MB-231. Kind of series: Antitumor activity against human MDA-MB-231 cells xenografted in BALB/c nude mouse assessed as tumor growth inhibition at 20 mg/kg, iv administered every two days for 21 days. The series is classed as functional, organism-based. The conditions noted are these: time 21.0 day.
Series [30] deals with MDA-MB-231. The series is described as follows: Antitumor activity against human MDA-MB-231 cells xenografted in BALB/c nude mouse assessed as tumor size at 20 mg/kg, iv administered every two days for 21 days (reference value: 1940 mm3). The conditions noted are these: time 21 day. The format is functional.
The subject of series [31] is MDA-MB-231. The series is described as follows: Antitumor activity against human MDA-MB-231 cells xenografted in BALB/c nude mouse at 20 mg/kg, iv administered every two days for 21 days relative to control. The format is functional. The conditions noted are these: MDA-MB-231, 504 h, time 21 day, read-out: TGI.
A short description of series [32]: Toxicity in BALB/c nude mouse xenografted with human MDA-MB-231 cells assessed as body weight change at 20 mg/kg, iv administered every two days for 21 days. The format is organism-based. The conditions noted are these: in vivo, 504 h, time 21 day.
Series [33] has as its system MDA-MB-231. Kind of series: Cytotoxicity against human MDA-MB-231 cells in presence of Cu2+ by MTT assay. The series is classed as functional, cell-based.
The next series relates to A549. The series is described as follows: Cytotoxicity against human A549 cells in presence of Cu2+ by MTT assay. The series is classed as functional, cell-based.

Activity calls are given as the source filed them. The calls are words filed in the database; no cut-off is given here.

From ChEMBL document CHEMBL6153037, “Developing dual-responsive quinolinium prodrugs of 8-hydroxyquinoline by harnessing the dual chelating sites” (Eur J Med Chem, 2025) come the findings set out here.

`O=C(CCc1ccc(O)cc1)c1c(O)cc(O)cc1O[C@@H]1O[C@H](CO)[C@@H](O)[C@H](O)[C@H]1O` [PHLORIZIN]: in the series with MDA-MB-231 [1], half-maximal inhibition (IC50) required 26.2 µM.
On to `OC[C@H]1O[C@@H](Oc2ccc(C[n+]3cccc4cccc(O)c43)cc2)[C@H](O)[C@@H](O)[C@@H]1O.[Cl-]`, for which the IC50 was determined as 17.9 µM with MDA-MB-231 [2], 31 µM with MDA-MB-231 [3] and 26.2 µM with MDA-MB-231 [4]. Also, the Activity entry in the series with MCF-10A [5] is reported as “Non-toxic”; with MDA-MB-231 [11], 53.4%; in the series with MDA-MB-231 [12], 36.1%; in the series on MDA-MB-231 [13] it was 10.5%; in the series on MDA-MB-231 [14] it was 0.043%; in the series on MCF-10A [16] it was 5.79%. Also, the Activity in the series with MCF-10A [17] is 6.44%; in the series on MCF-10A [18] it was 0.4%; in the series with MDA-MB-231 [19], “Dose-dependent-effect”; in the series on MCF-10A [20] it was “Non-toxic”; with MDA-MB-231 [27], 0.26%; in the series on MDA-MB-231 [30], 970 mm3. In addition, the Activity result in [32] is on record as “Non-toxic”. In [6], the selectivity ratio is 5.7. Moreover, in series [7], the logP stood at 2.93. In addition, in series [8], the logD was determined as 1.72. The values for the solubility in [9] and in series [10] were 35.5 µg/mL and 34.2 µg/mL, respectively. In addition, the viability at 24 h in [15] was 87.4%. Also, the outcome in the series with MDA-MB-231 [21], with MDA-MB-231 [26] and in the series on MDA-MB-231 [28] was Active. For the same compound, the inhibition entry in the series on MDA-MB-231 [22], with MDA-MB-231 [23], with MDA-MB-231 [24] and with MDA-MB-231 [29] was “Active” throughout. Besides, the “inhibition (INH)” value in the series on MCF-10A [25] was “Non-toxic”. Also, the inhibition in vivo at 20 mg/kg with MDA-MB-231 [31] is 49.6%.
On to `OC[C@H]1O[C@@H](Oc2cccc3cccnc23)[C@H](O)[C@@H](O)[C@@H]1O`, for which the IC50 with MDA-MB-231 [33] and with A549 was 5.56 µM each time.
